Holding throughout (assay): NCI tumour cell line growth inhibition, 48 h
Experiment [1] relates to SF-295 CNS.
The subject of experiment [2] is SK-MEL-5 melanoma.
Experiment [3] relates to HL-60(TB) leukemia.
The subject of experiment [4] is MDA-MB-231 breast.
Experiment [5] deals with PC-3 prostate.
Experiment [6] deals with BT-549 breast.
The subject of experiment [7] is SK-MEL-28 melanoma.
Experiment [8] deals with SW-620 colon.
Experiment [9] relates to DMS 114 small cell lung.
The subject of experiment [10] is DMS 273 small cell lung.

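Interpolation was linear, between the two tested concentrations surrounding the appropriate level; five concentrations were tested over 48 hours in 96-well plates. GI50 marks 50% less growth. At the TGI there is no net growth.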

For the compound `N#Cc1c(NC(=O)NCc2ccccc2)sc2c1CCCC2`, the GI50 in experiment [1] is 0.549 µM; in [2], 0.439 µM; in experiment [3], 0.3 µM; in experiment [4], 1.73 µM; in experiment [5], 0.559 µM; in experiment [6] it was 1.25 µM. Moreover, the results for the GI50 in experiment [7] and in experiment [8] were 6.37 µM and 0.388 µM, respectively. The TGI in experiment [1] is 37.7 µM; in [2], 6.93 µM; in experiment [3], 3.13 µM; in experiment [4], greater than 42.4 µM; in experiment [5], greater than 100 µM; in [6], greater than 100 µM. In addition, the TGI in [7] and in [8] was greater than 100 µM in each case.
Turning to `CCC(CC)c1nc(Nc2ccc(C(=O)OC)cc2)c2ccccc2n1`, the GI50 in [1] is greater than 18.8 µM; in experiment [2], 7.82 µM; in experiment [3] it was 8.17 µM; in experiment [4] it was 8.59 µM; in experiment [5], 7.8 µM; in experiment [6], 31.7 µM. Further, the results for the GI50 in experiment [7] and in experiment [8] were 7.1 µM and 12.7 µM, respectively. Moreover, the TGI in [1] was greater than 26 µM; in [2], 16.1 µM; in [3] it was 26 µM; in experiment [4] it was 22.8 µM; in experiment [5] it was 17.1 µM; in experiment [6], greater than 50 µM. Besides, the results for the TGI in [7] and in [8] were 15.3 µM and greater than 27.7 µM, respectively.
For the compound `CSC1=Nc2c(c(C)c(-c3ccccc3)n2CCCN2CCCCC2)C2=NC(=O)C[C@H](C)N12`, the GI50 in experiment [1] was 2.54 µM; in experiment [2], 1.99 µM; in experiment [3], 2.51 µM; in experiment [4], 2.59 µM; in [5] it was 2.01 µM; in experiment [6], 2.83 µM. Also, the GI50 is 3.32 µM in experiment [7] and 2.99 µM in experiment [8]. For the same compound, the TGI in experiment [1] is 9.19 µM; in experiment [2] it was 4.64 µM; in experiment [3], greater than 19.8 µM; in experiment [4], greater than 30.9 µM; in [5] it was 10.1 µM; in experiment [6], 13.7 µM. The TGI in [7] was 14.9 µM; in experiment [8], 18.2 µM.
On to `O=C1/C(=N\O)c2ccccc2S1(=O)=O`, for which the TGI in [9], in [1], in experiment [2], in experiment [3], in experiment [10] and in experiment [8] was greater than 100 µM in each case.
As to `Cc1c(O)c2ccccc2oc1=O`, the TGI in [1], in [2], in experiment [3], in [4], in [5] and in experiment [6] was greater than 100 µM in each case. Further, the TGI in experiment [7] and in [8] was greater than 100 µM each time.
For the compound `Nc1cc(F)ccc1CC(=O)O`, the TGI in [1], in experiment [2], in experiment [3], in [4], in experiment [5] and in [6] was greater than 100 µM each time. The TGI in [7] and in experiment [8] was greater than 100 µM each time.
For `C=C(C)[C@@H]1CC[C@]2(COCCC#N)CC[C@]3(C)[C@H](CC[C@@H]4[C@@](C)(CCCNCCC#N)[C@H](C(=C)C)CC[C@]43C)[C@@H]12`, the GI50 in experiment [1] was greater than 50 µM; in [2], 20.2 µM; in [3], 8.47 µM; in experiment [4], 7.83 µM; in [5], 10.3 µM; in experiment [6] it was 24.3 µM. Further, the GI50 was 9.26 µM in [7] and 11.5 µM in experiment [8]. Besides, the TGI in experiment [1] is greater than 50 µM; in experiment [2], greater than 50 µM; in [3], 20.5 µM; in experiment [4], 17.7 µM; in experiment [5], greater than 50 µM; in experiment [6] it was greater than 50 µM. Also, the TGI in experiment [7] is 18 µM; in experiment [8] it was 31.2 µM.
With `Nc1c(C(=O)c2ccc(-c3cccnc3)cc2)cnn1-c1ccc(F)cc1`, the GI50 in experiment [1] was greater than 25 µM; in experiment [2], greater than 15.2 µM; in experiment [3], greater than 13.8 µM; in experiment [4], greater than 13.1 µM; in experiment [5] it was greater than 25 µM; in [6], greater than 25 µM. Besides, the values for the GI50 in experiment [7] and in [8] were greater than 17.4 µM and greater than 22.4 µM, respectively. The TGI in experiment [1], in [2], in experiment [3], in experiment [4], in experiment [5] and in [6] was greater than 25 µM throughout. The TGI in [7] and in experiment [8] was greater than 25 µM each time.
Regarding `CCN(CC)CC(C)(C)C(=O)/C=C/c1cccc(/C=C/C(=O)C(C)(C)CN(CC)CC)c1`, the TGI in experiment [9] stood at 1.22 µM; in experiment [1] it was 3.28 µM; in [2] it was 2.97 µM; in experiment [10], 1.73 µM; in [7] it was 2.75 µM; in experiment [8], 0.419 µM.
Take `CCOC(=O)C1SC(=Nc2cccc(Cl)c2C)N=C1C` (stereo not given): the TGI in experiment [9] was greater than 100 µM; in experiment [1], 39.7 µM; in [3], 46.8 µM; in experiment [7] it was greater than 100 µM; in experiment [8], 57.5 µM.
Take `NC1=CC(=O)c2cccnc2C1=O`: the GI50 was 1.62 µM in experiment [1]; 1.58 µM in experiment [2]; 1.05 µM in [3]; 1.9 µM in experiment [4]; 2.22 µM in experiment [5]; 1.58 µM in experiment [6]. Also, the GI50 is 1.7 µM in experiment [7] and 1.56 µM in experiment [8]. Also, the TGI in [1] is 3.1 µM; in experiment [2] it was 2.95 µM; in experiment [3], 3.99 µM; in [4] it was 4.78 µM; in experiment [5] it was 7.55 µM; in [6] it was 2.98 µM. The TGI in [7] is 3.21 µM; in [8], 3.57 µM.
`COC(=O)[C@@H](C)C[C@H](Cc1cn(C)c2ccccc12)NC(=O)c1csc([C@@H](C[C@H](C(C)C)N(C)C(=O)[C@@H](NC(=O)[C@H]2CCCCN2C)C(C)C)OC(C)=O)n1`: the GI50 in [1] is 0.024 µM; in [2], 0.00595 µM; in experiment [3], 0.00469 µM; in experiment [4] it was 0.0239 µM; in experiment [5] it was 0.0139 µM; in experiment [6], less than 0.0113 µM. Further, the GI50 in experiment [7] is greater than 4.36 µM; in experiment [8], 0.0083 µM. Also, the TGI in experiment [1] is greater than 16.7 µM; in experiment [2] it was 0.252 µM; in experiment [3], 0.0194 µM; in [4], 0.966 µM; in [5] it was greater than 16.7 µM; in experiment [6] it was 0.49 µM. The TGI in experiment [7] and in experiment [8] was greater than 16.7 µM in each case.

The record behind these values is PubChem BioAssay (NCI).
